The values that follow come from patent US20230020329A1, “Annelated 9-hydroxy-1,8-dioxo-1,3,4,8-tetrahydro-2H-pyrido[1,2-a]pyrazine-7-carboxamides as HIV integrase inhibitors, methods of preparation and application thereof” (priority 2019, published 2023).

Each structure is given as a SMILES string. Values after ≈ are worked out from the molar mass of the structure shown. Where two headings read alike, the source gives them in different places.

The term bioavailability denotes dose-corrected exposure relative to a reference, in per cent. High values mean good availability, low ones poor availability. In general, AUC(0-inf) refers to the area under the concentration-time curve extrapolated to infinity. A higher AUC(0-inf) goes with high exposure. What is called AUC(0-t) is exposure summed from dosing to a finite time, without extrapolation to infinity. Higher therefore signals high exposure. In general, MRT last refers to a mean duration of stay, worked out from the concentration-time curve. The term half-life denotes the time needed for the level to fall by half in the phase considered. As usually defined, the Cmax is the peak of the concentration-time curve. As usually defined, the Tmax is the time from dosing to the highest level. Broadly, the solubility is the dissolved amount per volume that the medium holds.

In series [1] the test system is HIV. Conditions: depending on the method of analysis; read-out: Inhibitory activity EC50 (literature); cited from earlier work.
Series [2] relates to HIV. The settings on record: read-out: EC50 in WO 2014/100323; cited from earlier work.
Series [3] is described as follows: Pharmacokinetics in rat plasma, IV and oral. Type of series: in vivo, male Sprague-Dawley rats. The settings on record: for Cmax: read-out: Cmax; for Tmax: read-out: Tmax. Here is the method: The research was carried out on male Sprague-Dawley rats obtained from Charles River Laboratories (Germany). […] The age of the animals at the time of administration was 8-10 weeks. The animals were pre-catheterized so that all blood samples during the study of each substance could be taken from the same animals. Each substance was tested in 3 animals at each route of administration. The solution of test substances with a concentration of 0.2 mg/ml in 10% DMSO/10% Solutol/80% 0.05M N-methylglucamine was administered to rats intravenously in the tail vein at a dose of 1 mg/kg. Blood samples were collected at 5, 15, 30 min, 1, 2, 4, 8, and 24 hours after administration. Intragastric administration involved gavage using a solution with a concentration of 0.5 mg/ml in 0.5% methylcellulose at a dose of 5 mg/kg. Blood samples were collected at 15, 30 min, 1, 2, 4, 8, and 24 hours after administration. Blood (0.2 ml) was collected in polypropylene tubes containing 20 μl of 5% NaEDTA. Blood plasma was separated by centrifugation at 1500×g for 10 min and stored until testing at a temperature of −80° C. A pure acetonitrile-water (1:1) mixture (5 μl) was added to 45 μl of test samples. The samples were vortexed thoroughly for 10 seconds. Tolbutamide (100 μl) chilled to +4° C. (200 ng/ml in MeCN) was added to the samples and the mixture was vortexed. The samples were precipitated on ice at +4° C. for 15 minutes and then centrifuged at 2700 g for 10 min at +4° C. Supernatants (100 μl each) were transferred to a blank plate for HPLC/MS/MS analysis. The HPLC/MS/MS analysis was performed using an Agilent 1290 Infinity system coupled to an AB Sciex QTrap 6500 mass spectrometer. Pharmacokinetic analysis of plasma concentration vs time data was performed by a model-independent method using the Phoenix™ WinNonlin® 6.3 software (Pharsight Corp.). […]

Series [4] in a line: Thermodynamic (shake-flask) solubility. Type of series: physicochemical. The settings on record: for solubility at 24 h: thermodynamic from solid. The procedure: The test compound of general formula 1 or 2 (2 mg) was weighed into a glass vial. The pION universal buffer (0.5 ml) with pH 7.4 or deionized water was added to appropriate vials. The vials were tightly closed with a lid, placed on a rotating shaker, and incubated for 24 hours to balance the solution and the solid phase at the saturation point. Each resulting solution (200 μl) was taken (in duplicate) from the vials, placed in a 96-well MultiScreen Solubility Filter Plate (Millipore), and filtered using vacuum ([…]) into a polypropylene plate with a U-shaped bottom. If necessary, the filtrates were diluted with an appropriate buffer (water). Then, 120 μl of the filtarate (or a diluted filtrate) was transferred to a 96-well plate with a UV-transparent bottom and 60 μl/well of acetonitrile and 20 μl/well of DMSO were added and thoroughly mixed with a multichannel pipette (acetonitrile and DMSO were added to obtain a required composition of calibration standards, as described below). The optical density of the resulting solutions was measured on a multifunction Infinite 200 PRO plate reader in the wavelength range from 240 nm to 400 nm in steps of 10 nm. The value of ODλ for solutions was assessed at a wavelength chosen for plotting a calibration curve.
The concentration of a substance in the solution after the solubility test was evaluated using a calibration curve. A stock solution in DMSO with a concentration of 2 mg/ml was prepared from a separate sample. […] The range of final concentrations of the calibration curve was 0.2; 0.1; 0.05; 0.025; 0.0125; 0.00625, and 0 mg/ml. Calibration solutions were prepared in a 96-well UV plate as follows: 20 μl of a 10-fold stock solution in DMSO, 60 μl of acetonitrile, and 120 μl of the appropriate buffer were added to the well and stirred. The optical density of the resulting solutions was measured on a multifunction Infinite 200 PRO plate reader in the wavelength range from 240 nm to 400 nm with a step of 10 nm. The optimal wavelength typically corresponding to the absorption maximum was chosen, and a linear dependence of OD at a given wavelength on the concentration of the compound was obtained.
The concentration of the compound in the filtrate after the solubility test was calculated according to the formula:
shake-flask solubility=(ODλfiltrate−ODλblank)/(slope×1.67×filtrate dilution)
wherein slope means the slope of the calibration curve; 1.67 is the filtrate acetonitrile+DMSO dilution ratio; filtrate dilution is an additional dilution of the filtrate, if applicable.

The subject of series [5] is HIV. As to the kind of experiment: EC50 reported in WO 2014/100323. Type of series: cell-based. The settings on record: A4 vs BIC; A5 vs A6. The text has this:
Specifically, only two inhibitors—A4 and A5—are known to comprise a pyridin-2-ylmethyl moiety instead of a benzyl moiety [WO 2014/100323].

Setting [6] is: male, Sprague-Dawley, rat plasma, IV 1 mg/kg.
[7] abbreviates: male, Sprague-Dawley, rat plasma, oral 5 mg/kg.

With `O=C(NCc1c(F)cc(F)cc1F)c1cn2c(c(O)c1=O)C(=O)N1[C@H]3CC[C@H](C3)O[C@@H]1C2` [BIC, Bictegravir], the figures for the EC50 in the series with HIV [1] and in the series on HIV [2] were 1 to 7.5 nM and 2.5 nM, respectively.

In series [3] (male, Sprague-Dawley, plasma, rat, oral 5 mg/kg vs IV 1 mg/kg, F=(AUClast PO/5·AUClast IV)·100), `C[C@H]1CO[C@@H]2Cn3cc(C(=O)NCc4ccc(F)cc4F)c(=O)c(O)c3C(=O)N12` [CAB, Cabotegravir, reference compound] displayed a bioavailability of 8.8%. In series [3] (setting [6]), this compound had an AUC(0-inf) of 232 µg·h/mL, an AUC(0-t) of 141 µg·h/mL, an MRT last of 9.19 h and a half-life of 18.3 h. For the same compound, in series [3] (setting [6]), the Cmax came out at 17000 ng/mL and the time of peak concentration (Tmax) was 0.08 h. Moreover, in series [3] (setting [7]), the AUC(0-inf) is 158 µg·h/mL, the AUC(0-t) was found to be 62.3 µg·h/mL, the MRT last was found to be 8.05 h and the half-life is 19.1 h. Besides, in series [3] (setting [7]), the highest concentration (Cmax) is 5210 ng/mL and the Tmax came to 4.67 h. In series [3] (male, Sprague-Dawley, rat plasma, oral 5 mg/kg, 8 h, read-out: C8 h), the concentration at 8 h amounted to 4340 ng/mL. For the same compound, the concentration at 24 h in series [3] (male, Sprague-Dawley, rat plasma, oral 5 mg/kg, 24 h, read-out: C24 h) was found to be 1840 ng/mL. Also, the kel in series [3] (rat plasma, IV 1 mg/kg) was determined as 0.04 h⁻¹. This compound also registered a kel in series [3] (rat plasma, oral 5 mg/kg) of 0.04 h⁻¹. For the same compound, in the series on HIV [1], the EC50 is 0.25 to 3 nM. Besides, the solubility at 24 h in series [4] (aqueous buffer, pION universal buffer pH 7.4, 24 h, read-out: Solubility, pH 7.4, value) was 5 µg/mL (≈ 12.3 µM). For the same compound, the “Solubility, water, value” in series [4] (deionized water, 24 h) worked out at 8 µg/mL (≈ 19.7 µM). Moreover, in series [4] (deionized water, water, read-out: Solubility in water), the solubility at 24 h turned out to be 8 µg/mL (≈ 19.7 µM).

As for `O=C(NCc1ncccc1C(F)(F)F)c1cn2c(c(O)c1=O)C(=O)N1[C@@H]3CC[C@@H](C3)O[C@H]1C2` [Compound A4, (2S, 5R, 13aS)-8-hydroxy-7,9-dioxo-N-{[3-(trifluoromethyl)pyridin-2-yl]methyl}-2,3,4,5,7,9,13,13a-octahydro-2,5-methanpyrido[1′, 2′: 4,5]pyrazino[2,1-b][1,3]oxazepine-10-carboxamide], the EC50 with HIV [2] was 33.3 nM. Also, the “Decrease in activity relative to the benzyl analogue (times lower)” value with HIV [5] turned out to be 13.3.

In the case of `O=C(NCc1ncc(F)cc1F)c1cn2c(c(O)c1=O)C(=O)N1[C@H]3CC[C@H](C3)[C@@H]1C2` [Compound A5, (1R, 4S, 12aR)-N-[(3,5-difluoropyridin-2-yl)methyl]-7-hydroxy-6,8-dioxo-1,2,3,4,6,8,12,12a-octahydro-1,4-methanodipyrido [1,2-a: 1′, 2′-d]pyrazine-9-carboxamide], in the series on HIV [2], the EC50 was 17.8 nM. Also, the “Decrease in activity relative to the benzyl analogue (times lower)” value with HIV [5] was “almost twofold decrease in activity”.
